Series [1] can be described thus: Feline pharmacokinetics (cannabidiol in serum by LC-MS/MS). In kind it is in vivo, cat. More on the design: AUC 0 −> t: concentration or dose not given beside the values. Here is the method:
On the first day of dosing, blood was collected for a PK analysis from 6 of the 8 cats. The most cooperative cats were selected for the PK analysis. […] Samples were placed into a red top clotting tube with no serum separator. […] The harvested serum was placed in cyrovials stored at −70° C. Each tube was labeled with the cat id, date of collection and collection time point. Samples were shipped overnight on dry ice to the Proteomics & Metabolomics Facility at Colorado State University.
200 μL of cold (−20 C) 100% Acetonitrile (spiked with 60 ng/mL of d3-CBD) was added to each sample and vortexed at room temperature for 5 minutes. 200 μL of water was added and vortexed for an additional 5 minutes. 1 ml of 100% hexane was then added to each sample and vortexed for a final 5 minutes. […] The upper hexane layer was transferred to new-labeled glass vials (˜900 uL per sample), carefully avoiding the middle and lower layers.
An 8 point standard curve of CBD was generated in matrix background using a blank serum. Concentrations ranged from 0 ng/mL 1000 ng/mL (3.2× dilution series). 50 uL of each spiked serum sample was extracted as above.
LC-MS/MS was performed on a Waters Acquity M-Class UPLC coupled to a Waters Xevo TQ-S triple quadrupole mass spectrometer. […] Flow rate was 3.0 μL/min and injection volume was 2.0 μL. […]
Each target analyte was visually inspected for retention time and peak area integration. Peak areas were extracted for target compounds detected in biological samples and normalized to the peak area of the appropriate internal standard in each sample using in-house R Script (TQS-tools). CBD concentrations were calculated in nanograms per milliliter of extract (0.06 mL) and then back calculated to nanograms per mL of serum (0.05 mL of serum).
LOD are calculated based on the standard deviation of the response (Sy) of the 0 point calibration standard (i.e., 0 ng/mL CBD as an estimate on noise) and the slope of the calibration curve (S) at levels approximating the LOD according to the formula: LOD=^3*(Sy/S). […]

Series [2] in a line: Single-dose oral pharmacokinetics of CBD oil in beagles (serum CBD by LC-MS). In kind it is in vivo. The conditions noted are these: male, beagle, dog, median of 4 dogs, read-out: T½ elim (converted). Here is the method: An initial investigation into single-dose oral pharmacokinetics was performed with 4 beagles (3.5-7 years, male castrated, 10.7-11.9 kg). Each dog received a 2 mg/kg and an 8 mg/kg oral dosage of CBD oil, with a 2-week washout period between each experiment. The dogs were fed two hours after dosing. Physical examination was performed at 0, 4, 8 and 24 hours after dosing. Attitude, behavior, proprioception, and gait were subjectively evaluated at each time point during free running/walking and navigation around standard traffic cones (weaving). Five ml of blood was collected at time 0, 0.5, 1, 2, 4, 8, 12 and 24 hours after oil administration. Blood samples were obtained via jugular venipuncture and transferred to a coagulation tube for 20 minutes. […]
From the UHPLC-QQQ-MS data, peak areas were extracted for CBD detected in biological samples and normalized to the peak area of the internal standard CBD-d3, in each sample using Skyline as well as an in-house R Script (www.r-project.org). CBD concentrations were calculated to nanograms per mL of serum as determined by the line of regression of the standard curve (r2=0.9994, 0-1000 ng/mL). For this assay, the limits of detection (LOD) and limits of quantification (LOQ) represent the lower limits of detection and quantification for each compound in the matrix of this study. […]

Molecules are shown by their SMILES. Where “and” joins values, the source holds several entries; their conditions need not be identical. Identical values can stand only once.

Broadly, the Cmax is the peak of the concentration-time curve.

In the case of `C=C(C)[C@@H]1CCC(C)=C[C@H]1c1c(O)cc(CCCCC)cc1O` [Cannabidiol, cannabidiol], in series [1] (individual cats, 0 time to last collection [24 hr]), the “AUC 0 −> t” value was 265.0 ng·h/mL and 54.2 ng·h/mL and 42.4 ng·h/mL and 212.2 ng·h/mL and 125.0 ng·h/mL and 134.2 ng·h/mL and 60.2 ng·h/mL. The compound also came in with a Cmax in series [1] (serum, po, 2 mg/kg) of 47.6 ng/mL. Besides, the half-life in series [1] (serum, po, 2 mg/kg, individual cats, oral 2/mg/kg cannabidiol in capsule form, read-out: T½ el (converted)) was 1.2 h; in series [2] (2 mg/kg single oral dose), 4.2 h; in series [2] (8 mg/kg single oral dose) it was 4.2 h.

These data come from patent US20220249586A1, “HEMP EXTRACT AND METHODS OF USE THEREOF” (ElleVet Sciences, priority 2019, published 2022).
